Values joined by “and” are separate entries in the source; they are usually repeats but may differ in a detail not shown here. Equal entries are not always repeated. Where two headings read alike, the source gives them in different places. One block for each compound: values may come before it.
Columns and labels:
KDM4A [1] = details: KDM4A (1 μM), H3_1–15K9me3 as substrate; cited from earlier work
KDM4A [2] = details: KDM4A versus JMJD6
KDM4E = KDM4E (2.1 μM), H3_1–15K9me3 as substrate, oxygen consumption assay, cited from earlier work
KDM4C = KDM4C (3 μM), H3_1–15K9me3 as substrate, oxygen consumption assay, cited from earlier work
[3] = tested on: type I human collagen prolyl 4-hydroxylase (CP4H-I); details: (Pro-Pro-Gly)10 as substrate, [14C]CO2 release; cited from earlier work
[4] = tested on: phytanoyl-CoA dioxygenase (PHYH); details: PHYH (50 μM), isovaleryl-CoA as substrate, oxygen consumption assay, cited from earlier work
AspH [5] = details: AspH versus JMJD6
AspH [6] = details: AspH (0.1 μM), hFX-CP101–119 as substrate, cited from earlier work
full-length His6-JMJD6 [7] = target: T1, full-length His6-JMJD6 (Homo sapiens, UniProt Q6NYC1); assay: SPE-MS kinetics of JMJD6 for O2; assay type: biochemical
T1 construct: An enzyme mixture (10 μL) containing full-length His6-JMJD6 (5 μM; final concentration: 0.05 μM); made in house; host or cells: Escherichia coli BL21 (DE3), pET-28a(+) plasmid
Description: (§1) Recombinant human JMJD6 (full length with a N-terminal His6-tag) was produced in Escherichia coli BL21 (DE3) cells using a pET-28a(+) plasmid and purified by standard Ni(II)-affinity size-exclusion chromatography, as previously reported.[40] […] Purified JMJD6 was stored at −78 °C; fresh aliquots were used for all JMJD6 assays.
Assays to determine the kinetic parameters of JMJD6 for O2 were performed in 2 mL gas-tight glass vials (Sigma-Aldrich) in independent triplicates. 50 mM Tris buffer (pH 7.5; 0.95 mL) was incubated in a 2 mL gas-tight glass vial at 37 °C for 30 min with a fixed O2 concentration (in N2; specified in Fig S9, ESI ^†), adjusted using a mass flow controller. […] The JMJD6-catalysed reaction was performed at 37 °C at a fixed O2 concentration and was stopped after the reaction time specified (Fig. S9, ESI ^†) by the addition of 20%v/v aqueous formic acid (100 μL) and analysed by SPE-MS. The %-concentration of O2 in N2, adjusted with a mass flow controller, was converted into an O2 concentration [μM] by calibration using a standard (i.e., y[μM] = 9.026·x[%]).[100] Data were analysed by SPE-MS as described above to calculate apparent JMJD6 kinetic parameters for O2.

PHD2 [8] = details: PHD2 versus JMJD6
FIH = FIH (5 μM), HIF-1α789–822 as substrate, cited from earlier work
PHD2 [9] = details: PHD2 (4 μM), cited from earlier work; for k cat: O2
BBOX = tested on: BBOX; design: method as in PMID 25030770, PMID 24317009; details: BBOX (0.05 μM); 1H NMR turnover assay; cited from earlier work
JMJD5 = tested on: JMJD5; design: method as in PMID 37292060; details: SPE-MS, cited from earlier work
full-length His6-JMJD6 [10] = target: T1, full-length His6-JMJD6; assay: SPE-MS kinetics of JMJD6-catalysed lysyl hydroxylation (2OG, Fe(II), LAA, BRD-derived peptides); assay type: biochemical; details: 2OG or Fe(II) varied, BRD4_511–550 (2 μM) as substrate, 0.05 μM full-length His6-JMJD6, ambient temperature
Description: as §1
Peptides were used as 10 mM stock solutions in DMSO (Sigma-Aldrich; BioUltra grade).
Assay samples were aspirated under vacuum for 0.4 s, then loaded onto a C4 solid phase extraction (SPE) cartridge. After loading, the C4 SPE cartridge was washed with 0.1%v/v aqueous formic acid to remove non-volatile buffer salts (5 s, 1.5 mL min^−1). The peptide was eluted from the SPE cartridge with 0.1%v/v aqueous formic acid in 75/25v/v acetonitrile/water into the mass spectrometer (5 s, 1.6 mL min^−1) and the SPE cartridge re-equilibrated with 0.1%v/v aqueous formic acid (1 s, 1.25 mL min^−1).
Peaks corresponding to the m/z +5 charge states of the BRD-derived substrate peptide and the hydroxylated product peptides were extracted from the ion chromatogram and integrated using RapidFire Integrator 4.3.0 (Agilent). Peak area data were exported into Microsoft Excel and used to calculate the relative abundance of the mono-hydroxylated product peptide using the following equation: […]
The concentration of the mono-hydroxylated product peptide was calculated by multiplying the %-fraction of the mono-hydroxylated product peptide by the initial concentration of the substrate peptide employed in the assay. Initial reaction velocities were then calculated and fitted to a Michaelis–Menten plot using nonlinear regression (GraphPad Prism 5).

PHD2 [11] = tested on: PHD2; design: method as in PMID 18952043; details: PHD2 (1.0 nM), HIF-1α-derived biotin-DLEMLAPYIPMDDDFQL as substrate; FRET assay; 2OG or Fe(II); cited from earlier work
NO66_183–641 = tested on: NO66_183–641; design: method as in PMID 34843649; details: NO66_183–641 (0.3 μM), RPL8_205–224 as substrate; SPE-MS; 2OG or Fe(II); cited from earlier work
AspH315–758 = tested on: AspH315–758; design: method as in PMID 32107312; details: AspH315–758 (0.1 μM), hFX-CP101–119 as substrate; SPE-MS; 2OG or Fe(II); cited from earlier work
[12] = LAA 100 μM, 50 mM Tris pH 7.5, ~20 min, SPE-MS, mean ± SD n = 3

- K^app m (O2) of JMJD6: fold greater than CP4H-I (full-length His6-JMJD6 [7]; JMJD6/BRD4_511–550 versus CP4H-I (ref 26)): ~2 fold
- K^app m (O2) of JMJD6: fold greater than KDM6B (full-length His6-JMJD6 [7]; JMJD6/BRD4_511–550 versus KDM6B (ref 96)): ~4 fold
- apparent Michaelis constant K^app m for O2 (full-length His6-JMJD6 [7]; O2 varied, BRD4_511–550 (2 μM) as substrate, 0.05 μM full-length His6-JMJD6, 50 mM Tris pH 7.5, 37 °C, quenched after 60 or 90 s, SPE-MS, mean ± SD n = 3): 69.8 ± 11.4 µM and 74 ± 14 µM
- apparent turnover number k^app cat (full-length His6-JMJD6 [7]; O2 varied, BRD4_511–550 (2 μM) as substrate, 0.05 μM full-length His6-JMJD6, 50 mM Tris pH 7.5, 37 °C, quenched after 60 or 90 s, mean ± SD n = 3): 0.12 ± 0.01 s⁻¹
- specificity constant kcat/Km (full-length His6-JMJD6 [7]; O2 varied, BRD4_511–550 (2 μM) as substrate, 0.05 μM full-length His6-JMJD6, pH 7.5, 37 °C, n = 3): 1700 ± 400 M⁻¹ s⁻¹
Compound: O=O [O2, dioxygen]
- K m for O2 (KDM4A [1]): 173 ± 23 µM
- K^app m (O2): fold greater than that of JMJD6 (KDM4A [2]): ~2 fold
- K m for O2 (KDM4E): 197 ± 16 µM
- k cat (KDM4E; O2): 0.067 ± 0.001 s⁻¹
- K m for O2 (KDM4C): 158 ± 13 µM
- k cat (KDM4C; O2): 0.043 ± 0.001 s⁻¹
- K m for O2 [3]: ~40 µM
- k cat ([4]; O2): 0.016 s⁻¹
- K m for O2 [4]: 93 ± 43 µM
- K^app m (O2): fold greater than that of JMJD6 (AspH [5]): ~6 fold
- K m for O2 (AspH [6]): 426 ± 73 µM
- k cat (AspH [6]; O2): 0.23 ± 0.04 s⁻¹
- K^app m (O2): fold greater than that of JMJD6 (PHD2 [8]): ~6 fold
- K m for O2 (FIH): 110 ± 30 µM
- k cat (FIH; O2): 0.56 ± 0.04 s⁻¹
- k cat (PHD2 [9]; HIF-1α395–413 as substrate): 0.028 ± 0.001 s⁻¹
- k cat (PHD2 [9]; HIF-1α556–574 as substrate): 0.06 ± 0.01 s⁻¹
- K m for O2 (PHD2 [9]; HIF-1α395–413 as substrate): >450 µM
- K m for O2 (PHD2 [9]; HIF-1α556–574 as substrate): 460 ± 30 µM

Compound: C[N+](C)(C)CCCC(=O)[O-] [γ-butyrobetaine]
- K m (substrate) (BBOX): 4.2 µM
- k cat (substrate) (BBOX): 0.83 s⁻¹

Compound: RSP6_128–148: JMJD5 substrate
- k cat/Km (substrate) (JMJD5): 11500 ± 6300 M⁻¹ s⁻¹

Compound: ammonium iron(II) sulfate hexahydrate [Fe(II)]
- apparent Michaelis constant K^app m (full-length His6-JMJD6 [10]; [12]): 0.19 ± 0.02 µM
- apparent maximum velocity v^app max (full-length His6-JMJD6 [10]; [12]): 3.6 ± 0.1 nM/s
- apparent turnover number k^app cat (full-length His6-JMJD6 [10]; pH 7.5, calculated from v^app max assuming active JMJD6 = total enzyme, n = 3): 0.072 ± 0.002 s⁻¹
- specificity constant kcat/Km (full-length His6-JMJD6 [10]; pH 7.5, n = 3): 380000 ± 50000 M⁻¹ s⁻¹
- k cat/Km (JMJD5; RSP6_128–148 as substrate, 2OG or Fe(II)): 38500 ± 6200 M⁻¹ s⁻¹
- K^app m (PHD2 [11]): 0.89 ± 0.07 µM
- K^app m (NO66_183–641): 0.014 ± 0.001 µM
- K^app m (AspH315–758): 1.42 ± 0.16 µM
- k cat/Km (AspH315–758): 130000 ± 30000 M⁻¹ s⁻¹
- k^app cat (AspH315–758): 0.19 ± 0.03 s⁻¹

— PMC11878239, “Biochemical investigations using mass spectrometry to monitor JMJD6-catalysed hydroxylation of multi-lysine containing bromodomain-derived substrates” (RSC Chemical Biology, 2025)
